In article PMC8366453, “Efficacy of RyR2 inhibitor EL20 in induced pluripotent stem cell‐derived cardiomyocytes from a patient with catecholaminergic polymorphic ventricular tachycardia” (Journal of Cellular and Molecular Medicine, 2021):

Target: cardiac ryanodine receptor type‐2 (RyR2) (Homo sapiens, UniProt Q92736, R176Q)
Test: Confocal Ca2+ spark frequency dose-response in paced CPVT patient iPSC-derived cardiomyocytes (heterozygous R176Q)
Assay type: cell-based

Chain of cardiac ryanodine receptor type‐2 (RyR2) (Q92736 whole entry R176Q): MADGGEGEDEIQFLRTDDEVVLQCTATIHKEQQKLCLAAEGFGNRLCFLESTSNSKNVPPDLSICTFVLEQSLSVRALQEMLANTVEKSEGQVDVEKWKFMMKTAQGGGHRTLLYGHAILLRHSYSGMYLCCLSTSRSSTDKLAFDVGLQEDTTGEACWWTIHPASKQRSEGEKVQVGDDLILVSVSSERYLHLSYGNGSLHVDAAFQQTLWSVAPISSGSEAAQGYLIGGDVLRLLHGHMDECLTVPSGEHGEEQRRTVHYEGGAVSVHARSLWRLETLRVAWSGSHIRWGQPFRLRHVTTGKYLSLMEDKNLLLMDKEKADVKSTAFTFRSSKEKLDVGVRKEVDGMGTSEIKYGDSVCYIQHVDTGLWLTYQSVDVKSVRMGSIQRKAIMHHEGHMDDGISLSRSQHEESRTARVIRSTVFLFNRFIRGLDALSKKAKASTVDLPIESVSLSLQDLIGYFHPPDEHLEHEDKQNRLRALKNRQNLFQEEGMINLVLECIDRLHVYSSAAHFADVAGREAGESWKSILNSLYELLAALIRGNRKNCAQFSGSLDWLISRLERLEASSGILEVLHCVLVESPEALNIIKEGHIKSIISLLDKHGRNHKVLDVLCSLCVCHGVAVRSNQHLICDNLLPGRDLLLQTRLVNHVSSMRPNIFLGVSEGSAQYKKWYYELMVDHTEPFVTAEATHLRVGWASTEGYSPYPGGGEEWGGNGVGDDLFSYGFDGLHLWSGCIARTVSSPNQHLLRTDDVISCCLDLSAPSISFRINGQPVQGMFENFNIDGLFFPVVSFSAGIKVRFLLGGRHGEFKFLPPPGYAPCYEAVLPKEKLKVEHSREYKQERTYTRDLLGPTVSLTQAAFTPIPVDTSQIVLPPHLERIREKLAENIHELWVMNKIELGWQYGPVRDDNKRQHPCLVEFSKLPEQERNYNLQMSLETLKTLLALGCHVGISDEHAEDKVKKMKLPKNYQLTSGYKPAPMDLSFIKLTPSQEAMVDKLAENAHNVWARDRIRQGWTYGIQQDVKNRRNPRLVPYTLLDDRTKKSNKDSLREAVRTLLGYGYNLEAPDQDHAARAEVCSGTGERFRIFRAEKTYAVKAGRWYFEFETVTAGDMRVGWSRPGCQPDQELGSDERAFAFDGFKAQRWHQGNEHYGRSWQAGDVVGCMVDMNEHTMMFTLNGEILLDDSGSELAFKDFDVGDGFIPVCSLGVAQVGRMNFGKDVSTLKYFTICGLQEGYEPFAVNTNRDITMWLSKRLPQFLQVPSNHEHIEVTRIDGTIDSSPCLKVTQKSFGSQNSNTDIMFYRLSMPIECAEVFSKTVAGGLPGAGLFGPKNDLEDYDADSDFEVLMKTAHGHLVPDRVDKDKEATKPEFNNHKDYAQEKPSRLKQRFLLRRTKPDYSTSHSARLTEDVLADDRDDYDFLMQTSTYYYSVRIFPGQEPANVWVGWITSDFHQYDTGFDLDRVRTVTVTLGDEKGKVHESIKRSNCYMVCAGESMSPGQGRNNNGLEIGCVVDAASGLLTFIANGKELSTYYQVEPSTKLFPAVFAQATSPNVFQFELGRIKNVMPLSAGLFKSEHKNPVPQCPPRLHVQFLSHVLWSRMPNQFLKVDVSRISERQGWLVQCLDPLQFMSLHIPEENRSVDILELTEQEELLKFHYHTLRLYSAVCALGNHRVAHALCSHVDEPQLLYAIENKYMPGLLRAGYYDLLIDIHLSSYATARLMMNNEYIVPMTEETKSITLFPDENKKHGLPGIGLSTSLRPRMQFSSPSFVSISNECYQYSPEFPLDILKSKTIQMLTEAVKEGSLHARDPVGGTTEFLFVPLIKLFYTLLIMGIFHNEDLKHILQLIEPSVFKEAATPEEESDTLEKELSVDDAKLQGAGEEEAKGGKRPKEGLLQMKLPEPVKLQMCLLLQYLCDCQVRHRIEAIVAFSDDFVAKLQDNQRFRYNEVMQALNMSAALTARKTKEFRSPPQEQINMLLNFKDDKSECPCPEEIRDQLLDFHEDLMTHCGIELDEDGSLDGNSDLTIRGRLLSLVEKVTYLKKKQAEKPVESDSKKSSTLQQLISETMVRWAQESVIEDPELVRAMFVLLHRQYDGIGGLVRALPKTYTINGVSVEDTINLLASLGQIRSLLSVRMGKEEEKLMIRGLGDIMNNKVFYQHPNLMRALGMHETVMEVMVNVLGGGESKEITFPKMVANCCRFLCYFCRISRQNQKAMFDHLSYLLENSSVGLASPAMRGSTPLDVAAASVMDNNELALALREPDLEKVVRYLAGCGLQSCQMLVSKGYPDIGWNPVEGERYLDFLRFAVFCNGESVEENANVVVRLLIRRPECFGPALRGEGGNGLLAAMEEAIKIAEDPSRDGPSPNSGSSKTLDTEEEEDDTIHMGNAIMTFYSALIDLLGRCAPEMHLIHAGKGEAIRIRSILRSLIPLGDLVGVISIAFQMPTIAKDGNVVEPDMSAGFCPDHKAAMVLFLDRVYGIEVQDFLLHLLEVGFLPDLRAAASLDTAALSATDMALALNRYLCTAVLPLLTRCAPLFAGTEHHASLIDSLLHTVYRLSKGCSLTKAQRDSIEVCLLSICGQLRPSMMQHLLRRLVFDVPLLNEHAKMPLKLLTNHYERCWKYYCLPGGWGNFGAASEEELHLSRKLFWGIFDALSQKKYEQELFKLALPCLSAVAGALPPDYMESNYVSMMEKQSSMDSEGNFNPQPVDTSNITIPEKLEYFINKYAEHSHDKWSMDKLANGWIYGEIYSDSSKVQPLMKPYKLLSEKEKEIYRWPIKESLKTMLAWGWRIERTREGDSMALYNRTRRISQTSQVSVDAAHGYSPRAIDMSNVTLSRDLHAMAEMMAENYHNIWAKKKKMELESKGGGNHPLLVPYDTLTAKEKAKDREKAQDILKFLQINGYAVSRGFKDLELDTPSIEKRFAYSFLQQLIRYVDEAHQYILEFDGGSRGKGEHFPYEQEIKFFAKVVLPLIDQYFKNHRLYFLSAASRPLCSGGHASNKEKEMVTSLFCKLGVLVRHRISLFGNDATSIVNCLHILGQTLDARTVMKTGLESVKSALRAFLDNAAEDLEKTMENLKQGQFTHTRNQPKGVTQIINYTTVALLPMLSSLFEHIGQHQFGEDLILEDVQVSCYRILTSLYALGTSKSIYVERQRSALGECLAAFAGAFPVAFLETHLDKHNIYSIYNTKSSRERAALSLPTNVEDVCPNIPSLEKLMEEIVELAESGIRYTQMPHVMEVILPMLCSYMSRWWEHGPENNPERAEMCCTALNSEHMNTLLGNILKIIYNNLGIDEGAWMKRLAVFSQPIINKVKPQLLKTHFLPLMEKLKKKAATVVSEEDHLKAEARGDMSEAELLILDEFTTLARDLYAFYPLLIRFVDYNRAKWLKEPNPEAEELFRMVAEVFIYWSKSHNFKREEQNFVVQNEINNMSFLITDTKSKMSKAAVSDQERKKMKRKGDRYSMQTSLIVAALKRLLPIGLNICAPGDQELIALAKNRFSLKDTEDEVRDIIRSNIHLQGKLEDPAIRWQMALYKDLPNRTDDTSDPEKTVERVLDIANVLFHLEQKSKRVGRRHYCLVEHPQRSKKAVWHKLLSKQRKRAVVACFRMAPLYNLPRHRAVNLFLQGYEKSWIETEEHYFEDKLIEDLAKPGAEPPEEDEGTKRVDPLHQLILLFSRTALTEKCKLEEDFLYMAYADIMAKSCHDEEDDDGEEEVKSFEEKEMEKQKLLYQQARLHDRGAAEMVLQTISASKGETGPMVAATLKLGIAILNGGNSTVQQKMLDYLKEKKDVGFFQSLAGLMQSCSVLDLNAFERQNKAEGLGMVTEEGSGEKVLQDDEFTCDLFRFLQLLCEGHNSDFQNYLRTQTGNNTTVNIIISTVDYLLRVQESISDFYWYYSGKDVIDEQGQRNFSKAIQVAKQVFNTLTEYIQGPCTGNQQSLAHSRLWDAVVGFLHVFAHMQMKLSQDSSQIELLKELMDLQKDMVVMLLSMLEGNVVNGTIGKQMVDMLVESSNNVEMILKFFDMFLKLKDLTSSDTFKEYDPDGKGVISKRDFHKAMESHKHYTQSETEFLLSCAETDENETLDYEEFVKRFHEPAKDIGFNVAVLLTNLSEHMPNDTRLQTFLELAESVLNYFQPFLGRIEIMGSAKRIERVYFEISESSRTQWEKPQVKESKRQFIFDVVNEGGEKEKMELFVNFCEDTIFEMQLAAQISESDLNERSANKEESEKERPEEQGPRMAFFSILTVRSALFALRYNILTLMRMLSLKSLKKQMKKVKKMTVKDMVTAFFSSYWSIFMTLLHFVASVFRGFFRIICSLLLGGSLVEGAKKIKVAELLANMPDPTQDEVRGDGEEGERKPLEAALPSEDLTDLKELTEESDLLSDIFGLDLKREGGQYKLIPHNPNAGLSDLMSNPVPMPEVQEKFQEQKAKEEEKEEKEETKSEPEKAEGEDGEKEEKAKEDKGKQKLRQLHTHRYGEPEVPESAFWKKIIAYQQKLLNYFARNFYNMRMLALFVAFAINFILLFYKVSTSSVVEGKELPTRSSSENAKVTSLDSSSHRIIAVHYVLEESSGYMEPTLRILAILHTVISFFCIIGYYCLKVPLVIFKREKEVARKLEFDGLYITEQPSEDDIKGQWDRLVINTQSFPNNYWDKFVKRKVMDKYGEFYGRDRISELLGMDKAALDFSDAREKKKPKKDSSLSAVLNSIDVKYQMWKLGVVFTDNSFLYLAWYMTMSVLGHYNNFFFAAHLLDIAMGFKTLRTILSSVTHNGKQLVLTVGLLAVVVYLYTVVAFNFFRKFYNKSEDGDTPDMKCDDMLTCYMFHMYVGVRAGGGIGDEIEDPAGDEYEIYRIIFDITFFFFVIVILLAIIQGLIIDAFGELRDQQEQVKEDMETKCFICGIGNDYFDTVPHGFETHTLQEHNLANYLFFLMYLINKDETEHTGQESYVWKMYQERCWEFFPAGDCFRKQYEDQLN

- IC50: 82 nM
Compound: CCCCNc1ccc(C(=O)OCCN(CC)CC)c(OC)c1 [EL20]
